Consider five compounds from publication PMC2805240 (Journal of chemical information and modeling, 2009).

Molecules are shown by their SMILES.

Series [1] has as its target anthrax toxin lethal factor (Bacillus anthracis, UniProt P15917). Description: biochemical.
The next series has as its system LF. Conditions: read-out: IC50 in a LF enzyme assay; cited from earlier work.
A further series relates to macrophage. The settings on record: cited from earlier work.

Chain of anthrax toxin lethal factor (P15917 34-809 limits assumed): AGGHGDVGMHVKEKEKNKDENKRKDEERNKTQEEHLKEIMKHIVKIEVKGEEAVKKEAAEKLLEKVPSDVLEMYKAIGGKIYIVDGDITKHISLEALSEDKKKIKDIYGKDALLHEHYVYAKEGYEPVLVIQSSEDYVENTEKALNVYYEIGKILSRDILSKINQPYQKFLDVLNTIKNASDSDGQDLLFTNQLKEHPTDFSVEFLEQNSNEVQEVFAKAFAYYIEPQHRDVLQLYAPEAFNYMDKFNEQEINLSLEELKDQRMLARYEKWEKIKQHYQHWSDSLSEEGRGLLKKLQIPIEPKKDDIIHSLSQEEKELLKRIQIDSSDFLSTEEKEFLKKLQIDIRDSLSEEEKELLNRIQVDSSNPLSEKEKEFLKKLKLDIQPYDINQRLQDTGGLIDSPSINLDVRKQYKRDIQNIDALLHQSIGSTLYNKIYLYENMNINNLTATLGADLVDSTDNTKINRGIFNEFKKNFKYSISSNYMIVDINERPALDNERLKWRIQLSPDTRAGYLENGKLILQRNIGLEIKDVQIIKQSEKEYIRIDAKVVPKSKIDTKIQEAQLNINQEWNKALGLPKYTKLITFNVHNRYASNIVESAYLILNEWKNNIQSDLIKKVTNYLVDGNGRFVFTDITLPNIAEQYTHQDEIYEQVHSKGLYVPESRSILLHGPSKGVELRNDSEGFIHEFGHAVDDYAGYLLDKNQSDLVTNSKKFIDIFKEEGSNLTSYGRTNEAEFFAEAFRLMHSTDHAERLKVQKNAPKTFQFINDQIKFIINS

The compound `CNC(=O)[C@H](Cc1c[nH]c2ccccc12)NC(=O)[C@@H](CC(=O)NO)CC(C)C` [GM6001/M364205, ilomastat] registered an IC50 in series [1] of 10.2 ± 0.72 µM.

Regarding `Cc1cc(S(=O)(=O)N[C@@H](C(=O)NO)C2CCOCC2)ccc1F` [compound 40, (2R)-2-[(4-fluoro-3-methylphenyl)sulfonylamino]-N-hydroxy-2-(tetrahydro-2H-pyran-4-yl)acetamide], the values for the IC50 in the series on LF and in the series with macrophage were 0.054 µM and 0.21 µM, respectively. As for `CCN(Cc1ccccc1)Cc1cc(Cl)ccc1O` [compound 5421384, 2-[(benzyl(ethyl)amino)methyl]-4-chlorophenol], the IC50 in series [1] stood at 67.5 ± 2 µM. `CCN(Cc1ccccc1)Cc1cc(I)cc(I)c1O` [compound 5426202, 2-[(benzyl(ethyl)amino)methyl]-4,6-diiodophenol] yielded an IC50 in series [1] of 49.5 ± 1.5 µM.

On to `CCN(Cc1ccccc1)Cc1cc(Br)ccc1O` [compound 5428736, 2-[(benzyl(ethyl)amino)methyl]-4-bromophenol], for which half-maximal inhibition in series [1] (IC50) was put at 73.9 ± 4.5 µM.

Broadly, the IC50 is the midpoint of a concentration-inhibition curve.
